# Reference: US20070207230A1, “EXTRACT OF NELUMBINIS SEMEN FOR THE TREATMENT OF DEPRESSION, MEDICINAL COMPOSITE AND HEALTH FOODS INCLUDING THE EXTRACT OF NELUMBINIS SEMEN” (PURIMED CO., LTD., priority 2004, published 2007)
# How the values were obtained:
# [1] = test system: male Wistar white rats exposed to CMS; assay: Sucrose intake in the CMS model of depression; assay type: in vivo, rat; conditions: 8-week CMS, drug for the last four weeks
# Excerpt: Postnatal 6-week-old male Wistar white rats weighing 180-200 g were divided into test groups and a control group. The rats were first trained to experience and drink a 1% sucrose solution for 48 hrs to be adapted to sweetness. After three days, the test groups were exposed to CMS (chronic mild stress) for a total of eight weeks. The CMS procedure applied to the test groups was based on the procedure originally designed by Willner et al. (1987). The rats were sequentially exposed to a variety of mild stressors, and a series of stressors was suitably divided over one week and applied to rats according to a predetermined time schedule. This procedure was repeated for eight weeks.
# The stress procedure is given in Table 1, below, which describes a weekly CMS regime (20-h food and water deprivation, prey limitation after the food and water deprivation (45 g powdered prey sprinkled), exposure to empty water bottles after the food and water deprivation, all day illumination, 30° cage tilt; soiled cage (400 ml of water spilled on bedding), presentation of intermittent 85-dB white noise, presentation of flashes of light with a stroboscope, and tripled housing). The control rats were weekly exposed only to food and water deprivation for 20 hrs before sucrose intake was measured, and were normally bred in single cages for the rest of the time with sufficient water and food supply. […]
# Sprague-Dawley male rats = assay: Forced swim test, immobility time; assay type: in vivo, rat; conditions: 5 min forced swim the day after
# Description: During forced swimming, the immobility time, when a rat ceases struggling and remains floating motionless in the water, was measured. The forced swimming itself induces depression in rats. Rats in water baths struggle first, and then stop struggling and remain floating motionless in the water. At the immobile state, rats become desperate and almost come to give up their lives. This time is considered to be the situation when depression is induced.
# The antidepressive effects of drugs are assessed using this principle. Before being administered with drugs, experimental animals (rats) are dropped into water baths and forced to swim for 15 minutes to be trained to adapt to a suddenly changed environment without fear.
# A comparative group was orally administered with a Hypericum perforatum extract. Another comparative group was intraperitoneally administered with fluoxetine. Each drug was administered for one day or six days.
# Before the drug administration, the white rats were dropped into a cylindrical water bath (20 cm in diameter; 40 cm water depth) and forced to swim for 15 min. The day after the drug administration for one day or six days, the rats were forced to swim for 5 min, and during this forced swimming, immobility time was measured.
# 5-HT1A receptor = assay: [3H]-8-OH-DPAT receptor binding autoradiography on brain sections of CMS rats; assay type: in vivo, rat
# Description: Secondarily, antidepressive effects were evaluated by an increase or decrease in receptor binding of a serotonin 1A receptor agonist, [^3H]-8-OH-DPAT, in the rat prefrontal cortex, hippocampus and hypothalamus, which play important roles in depression, as follows. […] Whole brains were excised from the rats and rapidly frozen in dry ice. The rapidly frozen brains were stored at −70° C. until sectioned. The brains were cryo-sectioned into a size of 20 ? at −20° C. using a cryostat microtome (Leika), and each section was attached onto a gelatin-coated slide (Superfrost/Plus, Fisher Scientific). The slides were stored at −70° C. until use for observing changes in 5-HT1A receptor levels or activity. The changes in 5-HT1A receptor were examined using a radioisotope, [^3H]-8-OH-DPAT. The slides were taken out from a −70° C. freezer where the slides had been stored, and were pre-incubated in Tris-HCl buffer (170 mM Tris, 4 mM CaCl2, pH 7.6) for 30 min at room temperature. Then, the slides were incubated in Tris-HCl buffer containing 2 nM [^3H]-8-OH-DPAT (Amersham) for one hour. This incubation is total binding for observing the changes in the whole 5-HT1A receptor, and non-specific binding was observed using Tris-HCl buffer containing 1 μM 5-HT (Sigma). Then, the slides were washed with Tris-HCl buffer precooled at 4° C. six times and dried with chilled air. The slides were completely dried in a desiccator for 24 hours. The completely dried slides are exposed to Hyperfilm along with a standard scale bar for five weeks. The film exposed for five weeks was developed using a developer and a fixer. For quantitative analysis of density, the film was scanned using an image analysis program, ImageQuant (Molecular dynamics).
# The changes in 5-HT1A receptor levels or activity were examined using a radioisotope, [^3H]-8-OH-DPAT. Reduced levels or inactivation of 5-HT1A receptor occur in the prefrontal cortex, hippocampus and hypothalamus of depressed patients. […] This normalization of 5-HT1A receptor by antidepressant administration is effective in treating depression and depression-associated neurodegeneration. Based on this fact, an increase in 5-HT1A receptor levels can be assessed by a receptor binding assay using a 5-HT1A receptor […]. When an increase in 5-HT1A receptor levels is observed upon Nelumbinis Semen administration in comparison with a control group exposed to CMS, this is considered an in vivo indication of an antidepressive effect at the molecular level. After drugs were administered for the last four weeks of the 8-week CMS period, an increase in 5-HT1A receptor levels, as an in vivo indication of antidepressive effect, was found in animals administered with the Nelumbinis Semen extract.
# rat hippocampus proteins = assay: 2-DE analysis of hippocampus proteins of CMS rats; conditions: drug last four weeks, compared to control group
# Description: Thirdly, an increase in marker proteins of antidepression, which play important roles in depression, was examined in the rat hippocampus by 2-DE, as follows. Rats were exposed to CMS for eight weeks and administered with drugs for the last four weeks of a test period. The hippocampus was excised from the rats, suspended with a sonicator and centrifuged, and the supernatants were recovered. Each sample was mixed with an IEF sample buffer and loaded onto an IEF gel. Proteins were separated according to isoelectric point by isoelectric focusing (IEF) in the first dimension and according to molecular weight by SDS-PAGE at 100-200 V for about 1-2 hours in the second dimension. The gel was stained by a Gel-Code Blue staining method and evaluated for elevated or newly emerged proteins by the antidepressive substances. The elevated or newly emerged proteins by the antidepressive substances were subjected to mass spectrometry.
# Protein samples from the rat hippocampus were loaded onto an IEF gel. Proteins were separated according to isoelectric point by isoelectric focusing (IEF) in the first dimension and according to molecular weight by SDS-PAGE in the second dimension.
# male rats exposed to CMS = assay: Sexual (mating) behavior after CMS; assay type: in vivo, rat; conditions: drug last four weeks
# Description: A decrease in sucrose consumption (the core symptom of depression) in rats was confirmed during the 8-week CMS period, and antidepressants were administered for the last four weeks. Then, mating behavior of rats was observed. This test was carried out a dark and quiet room using a 16×16-inch transparent acrylic box. Mature female rats were ovariectomized, and, to induce sexual receptivity, were administered with 20 μg of estradiol benzoate 48 hrs before the test and 1 mg of progesterone 5 hrs before the test. Male rats were singly housed in the same box for 30 min to adapt to a new environment. […] When female rats have sexual receptivity, that is, are estrous, they allow male rats to mount and show lordosis. Sexual behaviors of male rats were divided into mounting, intromission and ejaculation, and frequency of each behavior was recorded. The number of ejaculation (higher frequency generally means higher sexual activity) was recorded for 30 min. The time taken after ejaculation before resumption of sexual activity was called “post-ejaculation interval (PEI)”. A decrease in PEI generally means that male rats have increased sexual activity.
# [2] = Body weight in the CMS model of depression; assay type: in vivo, rat; conditions: after 8-week CMS, drug for the last four weeks; versus CMS control group
# Excerpt: The rats were first trained to experience and drink a 1% sucrose solution for 48 hrs to be adapted to sweetness. After three days, the test groups were exposed to CMS (chronic mild stress) for a total of eight weeks. The CMS procedure applied to the test groups was based on the procedure originally designed by Willner et al. (1987). The rats were sequentially exposed to a variety of mild stressors, and a series of stressors was suitably divided over one week and applied to rats according to a predetermined time schedule. This procedure was repeated for eight weeks. […] The control rats were weekly exposed only to food and water deprivation for 20 hrs before sucrose intake was measured, and were normally bred in single cages for the rest of the time with sufficient water and food supply. […] Intake of a 1% sucrose solution was measured once every week in each of the four groups. […] Sucrose preference was expressed as a ratio of sucrose intake to total water and sucrose intake. […] In each group, sucrose intake was monitored from the beginning of CMS and for the CMS period of eight weeks. Body weight was measured before the 20-h water and food deprivation performed to measure sucrose intake every week.
# [3] = test system: male Wistar white rats exposed to CMS; assay: Open field activity after CMS; assay type: in vivo, rat; conditions: 8-week CMS, drug for the last four weeks; average
# Excerpt: The open field consisted of a wooden box of 75×75×30 cm, the floor of which was divided by width and length lines into 15 cm squares. The open field was connected to a small box of 15×15×15 cm, which was used as a start box where experimental animals waited to enter the open field. A vertical sliding door was installed between the start box and the open field. White rats were placed in the start box, and, after 30 sec, the sliding door was open. The time to leave the start box toward the open field, which was expressed as start latency, was recorded. The start latency time means the time ranging from when the door was opened to when the rat tails completely exited the start box. […] The following behaviors were recorded for a total of 10 min: locomotion, rearing, grooming and defecation. Grooming behavior was recorded as the total time spent grooming in 10 min, and the remaining behaviors were all recorded as frequencies. Locomotor activity was recorded by counting the number of squares each white rat crossed on the floor divided into 25 15×15-cm squares using a computer tracking system. […] Grooming was recorded as the number of times each rat stroked its head or combed its fur with its forepaws during 10 min. After the 10-min observation, the white rats were removed from the open field, and defecation frequency was recorded by counting fecal boluses on the floor of the open field.
smiles,measurement,setting,value
CNCCC(Oc1ccc(C(F)(F)F)cc1)c1ccccc1 (stereo not drawn) [fluoxetine],sucrose consumption,[1],restored to levels similar to the normal group
same,decrease in immobility time in comparison with a control group,Sprague-Dawley male rats; one-day drug administration,9.3%
same,decrease in immobility time in comparison with a control group,Sprague-Dawley male rats; six-day drug administration,22.1%
same,5-HT1A receptor levels,5-HT1A receptor; CA2 region of the rat hippocampus,decrease
same,decrease in 5-HT1A receptor levels,5-HT1A receptor; CA3 region of the rat hippocampus,2%
same,decrease in 5-HT1A receptor levels,"5-HT1A receptor; layer I-II of the rat cerebral frontal cortex, compared to the NS group, P<0.05",46%
same,5-HT1A receptor levels,"5-HT1A receptor; rat hippocampus and hypothalamus, compared to CMS control group",increase
same,protein spots in 2-DE of hippocampus,rat hippocampus proteins,decrease in spots 1 and 4
same,post-ejaculation interval (PEI),male rats exposed to CMS; compared to control animals exposed to CMS,no significant difference
same,sexual behavior (ejaculation frequency in 30 min),male rats exposed to CMS; compared to normal animals,remarkably reduced
same,body weight,[2],greater weight loss than the control group
same,visit counts in open field,[3],60 places in 10 min
